Blank lines part the entries; values can stand above or below the molecule they belong to.
How the values were obtained:
VCaP cells = test: Cell growth inhibition, VCaP; type: cell-based; details: for inhibition of cell growth: VCaP cells in culture, 1 μM and 10 μM
Protocol: (§1) 48 hours following plating of cells, the appropriate test compound is added to each well of the tissue culture dish at a predetermined concentration. The medium was replenished every 24 hours with fresh growth medium containing the same concentration of the same test compound for indicated period of the cell growth inhibition assay. Percent cell growth inhibition was calculated using a hemocytometer for estimating cell density in each of the test wells of the tissue culture dish and trypan blue dye exclusion microscopy and photography to estimate the fraction of viable cells in each test well.
(§2) The protein inhibition studies described above indicate that ERGi-USU is a selective inhibitor of ERG expression. To investigate whether ERGi-USU selectively arrested the growth of ERG positive cancer cells without arresting the growth of ERG negative cancer cells, a cell growth inhibition study was carried out using the following cancer and normal cell lines: ERG positive cancer cells (VCaP, COLO320, MOLT-4 and KG-1) cancer cells, ERG negative cancer cells (LNCaP, MDA PCa2b and LAPC4) cancer cells, normal prostate RWPE-1 and BPH-1 cells and normal endothelial HUVEC cells. Each cell line was cultured to achieve cells in logarithmic growth and these cells were then plated in 10 cm wells of a tissue culture dishes at a cell density of 2×10^6 cells per well. The plated cells were contacted with 0, 0.1, 0.5, 1.0, 5.0, and 10 μM concentrations of ERGi-USU for a period of 2, 4, 6 and 8 days. At the end of each time period, cells are recovered from the test plate, washed and the cell density and viability determined using a hemocytometer and trypan blue dye staining method. Cell growth inhibition was expressed as a graph correlating cell number to the concentration of ERGi-USU.
(§3) FIG. 4 illustrates the results of cell growth inhibition studies that were used to calculate the concentration of ERGi-USU needed for inhibiting 50% of the growth (IC50) of the cells mentioned above. As illustrated by this figure, ERGi-USU was a potent inhibitor of the growth of ERG positive cancer cells in culture.

LNCaP cells = test: Cell growth inhibition, LNCaP; type: cell-based; details: for inhibition of cell growth: ERG negative LNCaP cells, 1 μM and 10 μM
Protocol: as §1, §2, §3

MOLT-4 cells = test: Cell growth inhibition, MOLT-4; type: cell-based; details: Homo sapiens; MOLT-4, ERG positive acute lymphoblastic leukemia; read-out: Cell growth inhibition (ERGi-USU: IC50)
Protocol: as §1
(§4) The protein inhibition studies described above indicate that ERGi-USU is a selective inhibitor of ERG expression. […] At the end of each time period, cells are recovered from the test plate, washed and the cell density and viability determined using a hemocytometer and trypan blue dye staining method. Cell growth inhibition was expressed as a graph correlating cell number to the concentration of ERGi-USU. […]

RWPE-1 cells = test: Cell growth inhibition, RWPE-1; type: cell-based; details: Homo sapiens; RWPE-1, normal prostate; read-out: Cell growth inhibition (ERGi-USU: IC50)
Protocol: as §1, §4

ERG protein = molecular target: T1, ERG protein (Homo sapiens, UniProt P11308); test: In-cell Western primary screen for inhibitors of ERG expression in VCaP cells; type: cell-based; details: single 1 μM dose, 48 hours, duplicate screen
T1 construct: contacting a TMPRSS2-ERG fusion positive prostate cancer (VCaP) cell line with a fixed concentration of each compound; host or cells: VCaP
T1 sequence (P11308 33-479 limits assumed): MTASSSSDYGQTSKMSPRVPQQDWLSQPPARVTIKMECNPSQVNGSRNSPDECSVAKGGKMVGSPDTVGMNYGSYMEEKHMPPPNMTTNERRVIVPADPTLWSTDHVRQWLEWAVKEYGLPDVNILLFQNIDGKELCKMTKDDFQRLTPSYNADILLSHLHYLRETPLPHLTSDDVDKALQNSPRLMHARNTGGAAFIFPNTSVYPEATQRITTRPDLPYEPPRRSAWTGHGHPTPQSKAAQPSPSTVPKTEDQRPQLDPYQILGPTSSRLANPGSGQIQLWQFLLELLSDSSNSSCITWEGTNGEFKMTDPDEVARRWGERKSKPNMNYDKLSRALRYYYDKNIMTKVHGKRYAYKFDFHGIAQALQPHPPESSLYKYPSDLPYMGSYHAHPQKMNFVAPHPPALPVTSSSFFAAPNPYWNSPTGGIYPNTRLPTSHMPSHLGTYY
Text: To identify ERG specific small molecule inhibitors, the present inventors screened a library of small molecule compounds, by contacting a TMPRSS2-ERG fusion positive prostate cancer (VCaP) cell line with a fixed concentration of each compound in the small molecule library. ERG protein expression was monitored using an In-cell Western blot assay (LI-COR Biosciences, Lincoln, Nebr.), using a highly specific ERG monoclonal antibody (CPDR ERG-mAb; 9FY) for detection. See Furusato et al., Prostate Cancer Prostatic Dis., 13:228-372 (2010); Mohamed et al., J. Cancer, 1:197-208, (2010); Miettinen et al., Am. J. Surg Pathol., 35:432-41 (2011); and U.S. patent publication No. 2012/0135018A1.
The TMPRSS2-ERG fusion positive prostate cancer cell line, VCaP (ATCC), was used to identify small molecule inhibitors of ERG expression. […] The inhibition of ERG expression was evaluated by an In-cell Western blot assay (LI-COR Biosciences, Lincoln, Nebr.) using the ERG specific CPDR ERG-MAb as further described below. […]
Inhibition of ERG expression by the test compounds was determined by an In-cell Western assay (LI-COR Biosciences, Lincoln, Nebr.). […]
The tissue culture plates were imaged on a Li-Cor Odyssey Infrared Imaging System and infrared signals were measured to provide values for ERG expression and cell number via DNA staining. […]

PSA = test: Western blot analysis of PSA expression in prostate cancer cells; type: cell-based; details: 0.1-10 μM
Protocol: (§5) Cultured cells were treated at specific dosages with each of the test ERG inhibitors. Following incubation of the treated cells for indicated time period, cells were lysed using Mammalian Protein Extraction Reagent (M-PER; Pierce, Rockford, Ill.) containing a protease inhibitor cocktail and phosphatase inhibitor cocktails I & III (Sigma, St Louis, Mo.). Cell lysates containing 50 μg of total protein were electrophoresed through 4-12% Bis-Tris Gel (Invitrogen, Carlsbad, Calif.) and the cellular proteins were transferred to PVDF membrane (Invitrogen, Carlsbad, Calif.). Membranes were incubated at 4° C. for 12 hours with primary antibodies for AR, PSA, GAPDH, α-Tubulin, apoptosis markers and cell cycle regulators. Following exposure to primary antibodies, the membranes were washed with buffer (three times, 5 minutes each at room temperature) followed by incubation with relevant secondary antibodies for 1 hour at 24° C. Finally, the membranes were washed with buffer and developed using the ECL Western blot detection reagent (GE Health Care, Buckinghamshire, UK).
(§6) Briefly, ERG positive VCaP cells and ERG negative LNCaP, MDA PCa2b and LAPC4 cells in logarithmic growth were plated in 10 cm tissue culture dish at a cell density of 2×10^6 cells per dish. The plated cells were contacted with 0, 0.1, 0.5, 1.0, 5.0, and 10 μM concentrations of ERGi-USU for a period of 48 hours. Cells from each dish were then processed for Western blot analysis and alterations in the expression of ERG protein were monitored.

HUVEC cells = test: Cell growth inhibition, HUVEC; type: cell-based; details: Homo sapiens, ERG positive normal endothelial, read-out: Cell growth inhibition (ERGi-USU: IC50)
Protocol: as §1, §4

COLO320 cells = test: Cell growth inhibition, COLO320; type: cell-based; details: Homo sapiens, COLO 320; COLO320, ERG positive colon adenocarcinoma; read-out: Cell growth inhibition (ERGi-USU: IC50)
Protocol: as §1, §4

AR = test: Western blot analysis of AR expression in prostate cancer cells; type: cell-based; details: 0.1-10 μM
Protocol: as §5, §6

LAPC4 cells = test: Cell growth inhibition, LAPC4; type: cell-based; details: Homo sapiens; LAPC4, ERG negative metastatic prostate cancer; read-out: Cell growth inhibition (ERGi-USU: IC50)
Protocol: as §1, §4

KG-1 cells = test: Cell growth inhibition, KG-1; type: cell-based; details: Homo sapiens; KG-1, ERG positive myeloid leukemia; read-out: Cell growth inhibition (ERGi-USU: IC50)
Protocol: as §1, §4

ERG mRNA = test: Quantitative RT-PCR analysis of ERG transcripts in VCaP cells; type: cell-based, human; details: 1 μM, 24 hours
Protocol: The ERG inhibitors identified by the primary screen were used in a quantitative RT-PCR assay to evaluate their ability to inhibit ERG mRNA expression. Briefly, VCaP cells were treated at a concentration of 1 μM with each of the ten compounds for 24 hours. Following incubation with the test compounds the cells are lysed and the total RNA isolated. 200 ng of the total RNA was used for analysis of ERG transcripts by qRT-PCR using a pair of ERG primers specific for the coding sequence of tERG for analysis.

BPH-1 cells = test: Cell growth inhibition, BPH-1; type: cell-based; details: Homo sapiens; BPH-1, normal prostate; read-out: Cell growth inhibition (ERGi-USU: IC50)
Protocol: as §1, §4

MDA PCa2b cells = test: Cell growth inhibition, MDA PCa2b; type: cell-based; details: MDA-PCa-2b, ERG negative prostate cancer, read-out: Cell growth inhibition (ERGi-USU: IC50)
Protocol: as §1, §4

VCaP xenograft tumors = test: VCaP xenograft tumor growth inhibition in nude mice; type: in vivo; details: male nude mice, 150 mg/kg intraperitoneally 3 times per week, versus vehicle control and 100 mg/kg
Protocol: Male athymic nude mice 6-8 weeks old and weighing 27 to 30 g were purchased from Charles River Laboratories. ERG harboring prostate cancer cells (VCaP) were trypsinized and washed twice with ice-cold PBS, and resuspended in ice-cold 50% matrigel in serum-free DMEM medium. A total of 4×10^6 cells/0.1 ml/mouse were subcutaneously injected into lower right dorsal flank of the mice. Prior to injection, mice were anesthetized with inhalation anesthesia (isoflurane). Tumor growth was monitored weekly after injection. Three weeks later when tumors were palpable mice were randomly separated into 2 experimental groups and one control group of 7 mice in each group. In the treatment groups mice were injected intraperitoneally (I.P) with 100 mg/kg of ERGi-USU or 150 mg/kg of ERGi-USU while the control group were injected with vehicle (1:1 [v/v], DMSO/PEG300) only. Growth in tumor volume was recorded weekly by digital caliper measurements and tumor volumes calculated using the ½ (L×W^2) formula, where L=length of tumor and W=width. Tumor volumes were compared between treated and control groups with repeated measurements and statistical significance of the results between the groups computed using students t-test and p values calculated.
Male nude mice were injected with about 4×10^6 VCaP cells and tumor growth was monitored. […] Tumor growth was monitored weekly.

[1] = AR positive/ERG negative LNCaP, MDA PCa2b and LAPC4 cells, 48 hours

Compound: Oc1ccc2ccccc2c1/N=N/c1ccccn1 [ED-1]
- inhibition of cell growth (VCaP cells): inhibited the growth of VCaP prostate cancer cells
- inhibition of cell growth (LNCaP cells): no measurable inhibitory effect

Compound: Nc1c(O)ccc2ccccc12 [ED-2]
- inhibition of cell growth (VCaP cells): inhibited the growth of VCaP prostate cancer cells
- inhibition of cell growth (LNCaP cells): no measurable inhibitory effect

Compound: NC(c1ccccc1)c1c(O)ccc2ccccc12 (stereo not drawn) [ED-3]
- inhibition of cell growth (VCaP cells): inhibited the growth of VCaP prostate cancer cells
- inhibition of cell growth (LNCaP cells): no measurable inhibitory effect

Compound: Oc1ccc2ccccc2c1/N=N/c1nccs1 [ERGi-USU, 1-(thiazol-2-yldiazenyl)naphthalene-2-ol]
- IC50 (MOLT-4 cells): 50 nM
- IC50 (RWPE-1 cells): > 10000 nM
- IC50 (VCaP cells; Homo sapiens, VCaP, ERG positive metastatic prostate cancer, read-out: Cell growth inhibition (ERGi-USU: IC50)): 300 nM
- inhibition of ERG protein expression (In-cell Western, normalized by cell number) (ERG protein): inhibitors of ERG protein expression
- IC50 (LNCaP cells; Homo sapiens, LNCaP, ERG negative metastatic prostate cancer, read-out: Cell growth inhibition (ERGi-USU: IC50)): > 10000 nM
- inhibition of PSA protein expression (PSA; [1]): does not inhibit
- inhibition of PSA protein expression (PSA; VCaP cells): inhibits expression of PSA, and AR proteins
- IC50 (HUVEC cells): > 10000 nM
- IC50 (COLO320 cells): 300 nM
- inhibition of AR protein expression (AR; [1]): does not inhibit
- inhibition of AR protein expression (AR; VCaP cells): inhibits expression of PSA, and AR proteins
- IC50 (LAPC4 cells): > 10000 nM
- IC50 (KG-1 cells): 200 nM
- inhibition of ERG mRNA expression (qRT-PCR) (ERG mRNA): inhibitors of ERG-mRNA expression
- IC50 (BPH-1 cells): > 10000 nM
- IC50 (MDA PCa2b cells): > 10000 nM
- tumor volume (VCaP xenograft tumors): exhibited the smallest volumes

Continued, in another order:

- inhibition of ERG mRNA expression (qRT-PCR) (ERG mRNA): inhibitors of ERG-mRNA expression
Compound: Cc1[nH]ccc2c1[nH]c1cc(=O)ccc12 [NSC72292]

- inhibition of ERG mRNA expression (qRT-PCR) (ERG mRNA): inhibitors of ERG-mRNA expression
Compound: Oc1ccc2ccccc2c1/N=N/c1nccs1 [NSC99629, reference compound]
- inhibition of PSA protein expression (PSA; VCaP cells): No appreciable inhibition
- inhibition of AR protein expression (AR; VCaP cells): No appreciable inhibition

— patent US9782394B2, “Inhibitors for ERG oncogene positive cancers” (The Henry M. Jackson Foundation for the Advancement of …, priority 2014, dated 2017)
